For data set [1], the system named is HBV DNA. The data set is described as follows: Antiviral activity: inhibition of HBV DNA in supernatant of HepG 2.2.15 cells (dot blot hybridization). In kind it is cell-based, hepatitis B virus (HBV). To be noted: for IC50: Hepatitis B virus, HepG2.2.15, 192 h, read-out: IC50 (inhibition of the compounds on HBV DNA); for SI: selectivity index, TC50/IC50, HepG 2.2.15 cells. As to the method:
The antiviral effects of the compounds according to the present invention was determined following the methods described by Sells et al. (M. A. Sells, M. L. Chen, g. Acs, Proc. Natl. Acad. Sci., 1987, 84, 1005-1009) and Korba et al., (B. E. Korba, J. L. Gerin, Antiviral Research, 1992, 19. 55-70).
(§1) The antiviral assays were carried out in 96-well microtitre plates. Only growth medium and HepG 2.2.15 cells were added to the first vertical row of the plate, as a blank control.
(§2) Stock solutions of the test compounds (50 mM) were initially dissolved in DMSO, and further dilutions were prepared in the growth medium of HepG 2.2.15 cell. The compounds according to the present invention, usually in a test concentration of 100 μg/ml (1st test concentration), were pipetted into each well in the second vertical test row of the microtitre plate and subsequently diluted by 2 times each time, up to 2^10-fold, using the growth medium plus 2% of foetal calf serum (volume 25 p. 1).
(§3) 225 μl of a HepG 2.2.15 cell suspension (5×10^4 cells/ml) in the growth medium plus 2% foetal calf serum were then added to each well of the microtitre plate.
(§4) The assay mixture was incubated at 37° C., 5% CO2 for 4 days. The supernatant was subsequently siphoned off and discarded, and 225 μl of freshly prepared growth medium were added to each well. Once more, the compounds according to the present invention were added, in a volume 25 μl of solution. The mixtures were incubated for another 4 days.
The supernatants were subsequently harvested and siphoned onto in vacuum 96-well dot blot chambers covered with a nylon membrane (in accordance with the instructions of the manufacturer).
Determination of the Antiviral Activity
After transfer of the supernatants onto the nylon membrane of the blot apparatus (see above), the supernatants of the HepG 2.2.15 cells were denatured (1.5 M NaCl/0.5 M NaOH), neutralized (3 M […]/0.5 M Tris HCl, pH 7.5) and washed (2×SSC). The DNA was subsequently baked onto the membrane By incubation of the filters at 120° C. for 2-4 hours.
The viral DNA of the treated HepG 2.2.15 cells on the nylon filter membrane was usually detected using non-radioactive digoxigenin-labelled hepatitis B-specific DNA probes, which were in each case labelled with digoxigenin, purified and used for hybridization in accordance with the instructions of the manufacturer.
Briefly speaking, the prehybridization and hybridization were carried out in 5×SSC, 1× a blocking agent, 0.1% N-lauroylsacosine, 0.02% SDS and 100 μg of DNA from herring sperm. The prehybridization was carried out at 60° C. for 30 minutes and the specific hybridization was carried out using 20 to 40 ng/ml of the digoxigenated denatured HBV-specific DNA (14 hours, 60° C.). The filler membrane was subsequently washed and the antibody against digoxigenin of HBV DNA was determined.
The digoxigenin-labelled DNA was detected immunologically in accordance with the instructions of the manufacturer.
Briefly speaking, the filler membranes were washed and prehybridized in the blocking agent (in accordance with the instructions of the manufacturer), and then hybridized for 30 minutes using an anti-DIG antibody previously coupled to an alkaline phosphatase. After washing, a substrate of alkaline phosphoesterase, CSPD, was added, incubated with the filter for 5 minutes, subsequently wrapped in a plastic film and incubated at 37° C. for a further 15 minutes. The chemiluminescene signals of the Hepatitis B-specific DNA were measured by exposition of the filters on an X-ray film (incubating for 10 minutes to 2 hours, depending on strength of the signals). The half-maximum inhibitory concentration (IC50) was determined.
The half-maximum inhibitory concentration (IC50) means the concentration of the compound according to the present invention at which the hepatitis B-specific band was reduced by 50% in comparison with an untreated sample.

Data set [2] is described as follows: Determination of the cytotoxicity in HepG 2.2.15 cells (microscopy, Reed & Muench). In kind it is cell-based. The following applies: human, pathological changes at 8 days, read-out: TC50 (half-maximum toxic concentration). On the procedure:
as §1, §2, §3, §4
Before the supernatants were harvested for determining the antiviral effect, the HepG 2.2.15 cells were examined by an optical microscopy or by biochemical detecting methods (for example Alamar Blue staining or Trypan Blue staining) for cytotoxic changes.
Determination of the Cytotoxicity
Substances-induced cytotoxic or cytostatic changes in the HepG 2.2.15 cells can be determined by for example a optical microscopy and expressed as changes in the cell morphology. Such substance-induced changes, for example, as cell lysis, vacuolization or changed cell morphology in the HepG 2.2.15 cells was apparent in comparison with those in untreated cells. The pathological changes were observed under a microscope at 8 days as indice, wherein a complete destroy being designated as 4, 75% as 3, 50% as 2, 25% as 1, and no pathological change as 0. The average degree of pathological change and inhibition percentages at various concentrations were calculated, and a half-maximum toxic concentration (TC50) and a maximum non-toxic concentration TC0 were determined according to Reed & Muench methods.
TC50 means the concentration of the compounds according to the present invention at which 50% of the cells have a morphology which is similar to that of the corresponding cell control.

A short description of data set [3]: Solubility of the hydrochloride solid in solvents. It counts as physicochemical. As to the method:
0.38 g of the object compound obtained in Example 1 was dissolved in 2 ml anhydrous ethanol, to which hydrogen chloride ethyl solution was added dropwise to precipitate a solid, and filtered to obtain an off-white powdery solid 0.41 g, mp 197-199° C.

The mark [4] stands for this setting: HepG 2.2.15 cells, 8 days treatment.

Molecules are shown by their SMILES. Like-named read-outs stand apart in the source and are kept apart here.

For `CC1(C)CC(=O)C2=C(C1)NC(c1cccnc1)=NC2c1ccccc1` (stereo not shown) [Example 5, 2-(pyridin-3-yl)-4-phenyl-7,7-dimethyl-4,6,7,8-tetrahydroquinazolin-5(1H)-one], the IC50 in data set [1] (setting [4]) stood at 22.5 µM. The same molecule yielded an SI in data set [1] of 7.70. In addition, the CC50 at 8 days in data set [2] was 173 µM.

As for `O=C1CCCC2=C1C(c1ccc(F)cc1)N=C(c1cccnc1)N2` (stereo not shown) [Example 8, 2-(pyridin-3-yl)-4-(4-fluorophenyl)-4,6,7,8-tetrahydroquinazolin-5(1H)-one], the IC50 in data set [1] (setting [4]) was over 31.1 µM. In data set [1], this molecule showed an SI of under 4.7. Moreover, in data set [2], the CC50 at 8 days stood at 148 µM.

Regarding `CC1(C)CC(=O)C2=C(C1)NC(c1cccnc1)=NC2c1ccccc1Cl` (stereo not shown) [Example 7, 2-(pyridin-3-yl)-4-(2-chlorophenyl)-7,7-dimethyl-4,6,7,8-tetrahydroquinazolin-5(1H)-one], the IC50 in data set [1] (setting [4]) amounted to 26.2 µM. For the same molecule, the SI in data set [1] came to 2.57. Also, the CC50 at 8 days in data set [2] was 67.3 µM.

Consider `CC1(C)CC(=O)C2=C(C1)NC(c1ccccn1)=NC2c1ccc(F)cc1Cl` (stereo not shown) [Example 12, 2-(pyridin-2-yl)-4-(2-chloro-4-fluorophenyl)-7,7-dimethyl-4,6,7,8-tetrahydroquinazolin-5(1H)-one], for which the IC50 in data set [1] (setting [4]) is over 26 µM. Further, the SI in data set [1] was under 3.7. For the same molecule, the CC50 at 8 days in data set [2] was 97 µM.

On to `CC1(C)CC(=O)C2=C(C1)NC(c1cccnc1)=NC2c1ccc(F)cc1` (stereo not shown) [Example 4, 2-(pyridin-3-yl)-4-(4-fluorophenyl)-7,7-dimethyl-4,6,7,8-tetrahydroquinazolin-5(1H)-one], for which the IC50 in data set [1] (setting [4]) amounted to 25.3 µM. Besides, in data set [1], the SI came to 5.73. The CC50 at 8 days in data set [2] worked out at 145 µM.

Take `CC1(C)CC(=O)C2=C(C1)NC(c1cccnc1)=NC2c1ccc(F)cc1Cl.Cl` (stereo not shown) [Example 2, 2-(pyridin-3-yl)-4-(2-chloro-4-fluorophenyl)-7,7-dimethyl-4,6,7,8-tetrahydroquinazolin-5(1H)-one hydrochloride]: the “solubility in dichloromethane, ethyl acetate, acetone, etc.” value in data set [3] (dichloromethane, ethyl acetate, acetone, etc.) was “insoluble”. In addition, in data set [3] (methanol and ethanol), the “solubility in methanol and ethanol” value is “soluble slightly”. Further, the solubility in water result in data set [3] (water) is “very easily soluable”.

For `O=C1CCCC2=C1C(c1ccc(F)cc1Cl)N=C(c1cccnc1)N2` (stereo not shown) [Example 3, 2-(pyridin-3-yl)-4-(2-chloro-4-fluorophenyl)-4,6,7,8-tetrahydroquinazolin-5(1H)-one], the concentration for half-maximal inhibition (IC50) in data set [1] (setting [4]) came out at 25.2 µM. Besides, the SI in data set [1] amounted to 9.25. The CC50 at 8 days in data set [2] was 233 µM.

For `O=C1CCCC2=C1C(c1ccc(F)cc1Cl)N=C(c1c(F)cc(F)cc1F)N2` (stereo not shown) [Example 10, 2-(2,4,6-trifluorophenyl)-4-(2-chloro-4-fluorophenyl)-4,6,7,8-tetrahydroquinazolin-5(1H)-one], the IC50 in data set [1] (setting [4]) is over 24.4 µM. This molecule showed an SI in data set [1] of under 3.8. For the same molecule, the CC50 at 8 days in data set [2] stood at 94.1 µM.

For the molecule `O=C1CCCC2=C1C(c1ccccc1)N=C(c1cccnc1)N2` (stereo not shown) [Example 6, 2-(pyridin-3-yl)-4-phenyl-4,6,7,8-tetrahydroquinazolin-5(1H)-one], in data set [1], the IC50 is over 32.9 µM and the SI is reported as under 4.7. Also, the CC50 at 8 days in data set [2] was determined as 193 µM.

With `CC1(C)CC(=O)C2=C(C1)NC(c1c(F)cc(F)cc1F)=NC2c1ccc(F)cc1Cl` (stereo not shown) [Example 11, 2-(2,4,6-trifluorophenyl)-4-(2-chloro-4-fluorophenyl)-7,7-dimethyl-4,6,7,8-tetrahydroquinazolin-5(1H)-one], in data set [1] (setting [4]), the IC50 is over 22.9 µM. This molecule had an SI in data set [1] of under 3.2. In addition, in data set [2], the CC50 at 8 days worked out at 73.7 µM.

Regarding `O=C1CCCC2=C1C(c1ccccc1Cl)N=C(c1cccnc1)N2` (stereo not shown) [Example 9, 2-(pyridin-3-yl)-4-(2-chlorophenyl)-4,6,7,8-tetrahydroquinazolin-5(1H)-one], the IC50 in data set [1] (setting [4]) was over 29.6 µM. Further, the SI in data set [1] was under 5.6. In data set [2], the CC50 at 8 days was found to be 167 µM.

Take `CC1(C)CC(=O)C2=C(C1)NC(c1cccnc1)=NC2c1ccc(F)cc1Cl` (stereo not shown) [Example 1, 2-(pyridin-3-yl)-4-(2-chloro-4-fluorophenyl)-7,7-dimethyl-4,6,7,8-tetrahydroquinazolin-5(1H)-one]: the melting point was in the range of 186 to 187 °C. The IC50 in data set [1] (setting [4]) amounted to 0.026 µM. The SI in data set [1] was 4192. For the same molecule, the CC50 at 8 days in data set [2] came out at 109 µM.

As a reminder, the IC50 is the concentration that gives 50% inhibition. One may read the melting point as the temperature, or range, at which the solid turns liquid.

Source of the values: patent US8188091B2, “Tetrahydroquinazoline compounds and their use in preparing medicaments for treating and preventing virosis” (Beijing Molecule Science and Technology Co., Ltd., priority 2007, dated 2012).
